Measured values as given in BindingDB's records for PubMed 8078486 (Eli Lilly, 1994).

Tests used:
[1] = biological target: 5-hydroxytryptamine receptor 2B (Homo sapiens, UniProt P41595)
[2] = biological target: 5-hydroxytryptamine receptor 2B (Rattus norvegicus, UniProt P30994)
Sequence of 5-hydroxytryptamine receptor 2B (Rattus norvegicus, UniProt P30994) (P30994 whole entry): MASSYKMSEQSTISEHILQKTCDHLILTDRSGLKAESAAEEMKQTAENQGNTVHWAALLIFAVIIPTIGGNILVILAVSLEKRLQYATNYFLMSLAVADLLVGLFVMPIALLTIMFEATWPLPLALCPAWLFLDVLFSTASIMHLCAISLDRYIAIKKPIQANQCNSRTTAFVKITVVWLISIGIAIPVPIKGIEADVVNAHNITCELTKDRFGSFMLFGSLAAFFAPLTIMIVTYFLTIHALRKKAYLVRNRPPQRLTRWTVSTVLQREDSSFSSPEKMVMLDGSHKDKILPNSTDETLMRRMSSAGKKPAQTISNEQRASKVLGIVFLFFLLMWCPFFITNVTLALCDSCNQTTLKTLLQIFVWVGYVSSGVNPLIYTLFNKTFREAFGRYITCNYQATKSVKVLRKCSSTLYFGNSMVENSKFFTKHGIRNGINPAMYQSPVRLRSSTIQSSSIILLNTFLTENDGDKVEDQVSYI

Sequence of 5-hydroxytryptamine receptor 2B (Homo sapiens, UniProt P41595) (P41595 whole entry): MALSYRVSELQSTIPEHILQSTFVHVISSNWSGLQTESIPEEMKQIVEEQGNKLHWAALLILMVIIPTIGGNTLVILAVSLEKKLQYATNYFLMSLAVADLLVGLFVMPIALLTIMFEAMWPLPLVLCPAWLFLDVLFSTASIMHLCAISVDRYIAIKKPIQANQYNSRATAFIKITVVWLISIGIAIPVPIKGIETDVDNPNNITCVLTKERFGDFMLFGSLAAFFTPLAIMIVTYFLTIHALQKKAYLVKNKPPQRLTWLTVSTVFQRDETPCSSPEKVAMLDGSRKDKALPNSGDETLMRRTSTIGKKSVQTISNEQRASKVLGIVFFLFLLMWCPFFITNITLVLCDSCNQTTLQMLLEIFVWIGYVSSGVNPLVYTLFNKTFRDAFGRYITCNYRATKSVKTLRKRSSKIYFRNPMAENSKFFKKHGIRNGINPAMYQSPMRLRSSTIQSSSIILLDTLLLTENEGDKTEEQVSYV

SMILES | Ki [1] [nM] | Ki [2] [nM]
O=C(CCCN1CCC2(CC1)C(=O)NCN2c1ccccc1)c1ccc(F)cc1 [8-[4-(4-fluorophenyl)-4-oxidanylidene-butyl]-1-phenyl-1,3,8-triazaspiro[4.5]decan-4-one] | 697 | –
Cn1cc(CCN)c2cc(O)ccc21 [5-HT,omega-N-Me] | 11.9 | –
COc1cc(CC(C)N)c(OC)cc1I (centres undefined) [[125I]2,5-dimethoxy-4-iodoamphetamine] | 19.9 | 26.6
